Data as given in patent US9993493B2, “Composition for prevention, amelioration or treatment of metabolic syndrome” (HOUSE WELLNESS FOODS CORPORATION, priority 2010, dated 2018).

Assays:
Type in all cases: in vivo, male KK mice
diet-induced obese mice [1] = assay: Test Example 1: glucosyl hesperidin and caffeine fed in low-calorie feed to diet-induced obese mice; conditions: vs control group, caffeine 0.025 mass %, glucosyl hesperidin 0.25 mass %, mixture 0.25+0.025 mass %; for weight of mesenteric (visceral) fat tissue: 2 weeks low-calorie feed, FIG. 3; for changes in body weight: before and after 2 weeks low-calorie feed, FIG. 1
Source text: In such a situation, the effect of the composition of the present invention comprising glucosyl hesperidin and caffeine was investigated. As the glucosyl hesperidin and caffeine, “Hayashibara Hesperidin S (trade name)” (distributor: Hayashibara Co., Ltd.) and “Chanomoto (trade name)” (purity of caffeine: 98.5%, made by Shiratori Pharmaceutical Co., Ltd.) were used, respectively.
Five-week-old male KK mice were fed with water and a powder feed for breeding (CE-2 (trade name), made by CLEA Japan, Inc.) for one week, and then fed with the high-calorie feed (4.70 kcal/g) in Table 1 shown below for 3 weeks for induction of obesity. The mice were divided into 4 groups (a control group, a caffeine administration group, a glucosyl hesperidin administration group, and a present invention administration group (caffeine+glucosyl hesperidin), 5 to 8 mice per group) and fed with the low-calorie feed (3.16 kcal/g) in Table 1 shown below or the low-calorie feed supplemented with the corresponding test sample for 2 weeks, in expectation of using body fat. The feeds given to the test groups are as follows. • (1) Control group; low-calorie feed • (2) Caffeine administration group; low-calorie feed+0.025 mass % of caffeine • (3) Glucosyl hesperidin administration group; low-calorie feed+0.25 mass % of glucosyl hesperidin • (4) Present invention (mixture of glucosyl hesperidin and caffeine (10:1)) administration group; low-calorie feed+(0.25 mass % of glucosyl hesperidin+0.025 mass % of caffeine)
During the test period (2 weeks from the start of low-calorie feeding), body weight and feed intake were periodically measured. After the end of the test, the mice were euthanized, and mesenteric (visceral) fat tissue was removed and weighed.
(§1) The changes in body weight before and after the test period is shown in FIG. 1, the feed intake during the first 10 days of the test period is shown in FIG. 2, and the weight of mesenteric fat tissue per 100 g of body weight is shown in FIG. 3. The results are shown as Mean±SD of each group. The ** and * in the figures indicate a significant difference with a risk less than 1% and a risk less than 5% from the control, respectively.

diet-induced obese mice [2] = assay: Test Example 2: glucosyl hesperidin and caffeine mixtures (10:1, 20:1, 40:1) fed in low-calorie feed to diet-induced obese mice; conditions: vs control group, caffeine 0.0125 mass %, glucosyl hesperidin 0.25 mass %; for weight of subcutaneous fat tissue / weight of mesenteric (visceral) fat tissue: 2 weeks low-calorie feed; for weight of subcutaneous fat tissue: FIG. 6; for weight of mesenteric (visceral) fat tissue: FIG. 7; for changes in body weight: before and after 2 weeks low-calorie feed, FIG. 4
Source text: Under the same conditions as in Test Example 1, the effect of the composition of the present invention comprising glucosyl hesperidin and caffeine was investigated. The glucosyl hesperidin and caffeine used here were the same as in Test Example 1.
Five-week-old male KK mice were fed with water and a powder feed for breeding (CE-2 (trade name), made by CLEA Japan, Inc.) for one week, and then fed with the high-calorie feed (4.70 kcal/g) in Table 1 for 3 weeks for induction of obesity. The mice were divided into 6 groups (a control group, a caffeine administration group, a glucosyl hesperidin administration group, and mixture of caffeine and glucosyl hesperidin (present invention) administration groups, 6 to 7 mice per group) and fed with the low-calorie feed (3.16 kcal/g) in Table 1 or the low-calorie feed supplemented with the corresponding test sample for 2 weeks, in expectation of using body fat. The feeds given to the test groups are as follows. • (1) Control group; low-calorie feed • (2) Caffeine administration group; low-calorie feed+0.0125 mass % of caffeine • (3) Glucosyl hesperidin administration group; low-calorie feed+0.25 mass % of glucosyl hesperidin • (4) Mixture of glucosyl hesperidin and caffeine (10:1) administration group; low-calorie feed+(0.25 mass % of glucosyl hesperidin+0.025 mass % of caffeine) • (5) Mixture of glucosyl hesperidin and caffeine (20:1) administration group; low-calorie feed+(0.25 mass % of glucosyl hesperidin+0.0125 mass % of caffeine) • (6) Mixture of glucosyl hesperidin and caffeine (40:1) administration group; low-calorie feed+(0.25 mass % of glucosyl hesperidin+0.00625 mass % of caffeine)
During the test period (2 weeks from the start of low-calorie feeding), body weight and feed intake were periodically measured. After the end of the test, the mice were euthanized, and subcutaneous fat tissue and mesenteric (visceral) fat tissue were removed and separately weighed.
as §1, with “4,” for “1,”, “5, the weight of subcutaneous fat tissue per 100 g of body weight is shown in FIG. 6,” for “2,”, “7.” for “3.”, “$, **,” for “**”, “10%, a risk less than 1%,” for “1%”

diet-induced obese mice [3] = assay: Test Example 3: Oligonol and caffeine fed in low-calorie feed to diet-induced obese mice; conditions: vs control group, caffeine 0.025 mass %, Oligonol 0.1 mass %, mixture 0.1+0.025 mass %
Source text: As the polyphenol containing 15 mass % or more of proanthocyanidin having a polymerization degree of 1 to 3 and caffeine, “Oligonol (trade name)” (distributor: […] Five-week-old male KK mice were fed with water and a powder feed for breeding (CE-2 (trade name), made by CLEA Japan, Inc.) for one week, and then fed with the high-calorie feed (4.70 kcal/g) in Table 1 for 3 weeks for induction of obesity. […] The feeds given to the test groups are as follows. • (1) Control group; low-calorie feed • (2) Caffeine administration group; low-calorie feed+0.025 mass % of caffeine • (3) Oligonol administration group; low-calorie feed+0.1 mass % of Oligonol • (4) Present invention (mixture of Oligonol and caffeine (4:1)) administration group; low-calorie feed+(0.1 mass % of Oligonol+0.025 mass % of caffeine) During the test period (2 weeks from the start of low-calorie feeding), body weight and feed intake were periodically measured. After the end of the test, the mice were euthanized, and subcutaneous fat tissue, epididymal fat tissue, and mesenteric (visceral) fat tissue were removed and separately weighed. Also, at the start of the test period (the start of low-calorie feeding) and the end of the test period, plasma triglyceride level was measured. The changes in body weight before and after the test period is shown in FIG. 8, the feed intake during the first 10 days of the test period is shown in FIG. 9, the total weight of subcutaneous, epididymal, and mesenteric fat tissues per 100 g of body weight is shown in FIG. 10, and the changes in plasma triglyceride level before and after the test period is shown in FIG. 11. The results are shown as Mean±SD of each group.

Row | Molecule | weight of mesenteric (visceral) fat tissue (diet-induced obese mice [1]) | changes in body weight (diet-induced obese mice [1]) | weight of subcutaneous fat tissue (diet-induced obese mice [2]) | weight of mesenteric (visceral) fat tissue (diet-induced obese mice [2]) | changes in body weight (diet-induced obese mice [2]) | total weight of fat tissues (subcutaneous, epididymal, and mesenteric) (diet-induced obese mice [3]; 2 weeks low-calorie feed, FIG. 10) | plasma triglyceride level measured on the 14th day (diet-induced obese mice [3]; 14th day of low-calorie feed, FIG. 11) | changes in body weight (diet-induced obese mice [3]; before and after 2 weeks low-calorie feed, FIG. 8)
1 | glucosyl hesperidin | did not show any significant difference | equivalent values | did not show any significant difference | did not show any significant difference | values equivalent to those of the control group |  |  | 
2 | Cn1c(=O)c2c(ncn2C)n(C)c1=O [caffeine] | did not show any significant difference | significantly lower values | did not show any significant difference | did not show any significant difference | values equivalent to those of the control group | did not show any significant difference | did not show any significant difference | lower values
